Measurements taken from US20140249135A1, “PIM KINASE INHIBITORS AND METHODS OF THEIR USE” (NOVARTIS AG, priority 2007, published 2014).
pEC50, pIC50: −log10 of the molar value. Where two headings read alike, the source gives them in different places.

Key:
[1] = target: Pim3 kinase (Homo sapiens, UniProt Q86V86); assay: Pim3 ATP depletion assay; type: biochemical; details: for IC50: read-out: IC50 (μM) PIM3
[2] = target: T1, human full length PKCE enzyme (Homo sapiens, UniProt Q02156); assay: In vitro PKCE assay; type: biochemical; details: 10 nM enzyme, 40 uM peptide substrate, 20 uM ATP, KinaseGlo Plus readout; read-out: PKCε IC50
T1 construct: human full length PKCE enzyme purchased from InVitrogen; purchased InVitrogen
T1 sequence (Q02156 1-737): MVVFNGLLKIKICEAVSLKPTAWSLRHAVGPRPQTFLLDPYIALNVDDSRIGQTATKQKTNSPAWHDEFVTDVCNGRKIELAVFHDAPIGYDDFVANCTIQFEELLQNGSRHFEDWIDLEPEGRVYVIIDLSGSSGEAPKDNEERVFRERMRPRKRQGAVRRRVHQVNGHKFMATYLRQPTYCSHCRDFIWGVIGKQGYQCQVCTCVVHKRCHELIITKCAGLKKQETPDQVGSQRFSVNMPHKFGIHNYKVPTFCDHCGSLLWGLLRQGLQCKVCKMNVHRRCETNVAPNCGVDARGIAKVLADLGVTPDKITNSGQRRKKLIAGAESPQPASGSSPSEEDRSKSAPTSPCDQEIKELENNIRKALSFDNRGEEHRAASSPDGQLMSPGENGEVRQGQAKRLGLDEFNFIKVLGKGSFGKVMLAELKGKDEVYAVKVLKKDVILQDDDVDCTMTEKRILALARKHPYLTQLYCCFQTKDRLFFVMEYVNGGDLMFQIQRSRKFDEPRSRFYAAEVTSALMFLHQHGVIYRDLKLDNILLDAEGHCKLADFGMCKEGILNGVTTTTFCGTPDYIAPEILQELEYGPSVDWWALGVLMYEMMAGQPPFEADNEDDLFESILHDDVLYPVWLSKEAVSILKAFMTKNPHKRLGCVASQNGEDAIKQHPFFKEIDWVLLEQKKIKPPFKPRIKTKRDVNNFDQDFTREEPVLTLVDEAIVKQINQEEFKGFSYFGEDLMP

[3] = target: KDR kinase (Homo sapiens, UniProt P35968); assay: KDR AlphaScreen assay; details: KDR IC50 (μM)
Chain of KDR kinase (P35968 20-1356): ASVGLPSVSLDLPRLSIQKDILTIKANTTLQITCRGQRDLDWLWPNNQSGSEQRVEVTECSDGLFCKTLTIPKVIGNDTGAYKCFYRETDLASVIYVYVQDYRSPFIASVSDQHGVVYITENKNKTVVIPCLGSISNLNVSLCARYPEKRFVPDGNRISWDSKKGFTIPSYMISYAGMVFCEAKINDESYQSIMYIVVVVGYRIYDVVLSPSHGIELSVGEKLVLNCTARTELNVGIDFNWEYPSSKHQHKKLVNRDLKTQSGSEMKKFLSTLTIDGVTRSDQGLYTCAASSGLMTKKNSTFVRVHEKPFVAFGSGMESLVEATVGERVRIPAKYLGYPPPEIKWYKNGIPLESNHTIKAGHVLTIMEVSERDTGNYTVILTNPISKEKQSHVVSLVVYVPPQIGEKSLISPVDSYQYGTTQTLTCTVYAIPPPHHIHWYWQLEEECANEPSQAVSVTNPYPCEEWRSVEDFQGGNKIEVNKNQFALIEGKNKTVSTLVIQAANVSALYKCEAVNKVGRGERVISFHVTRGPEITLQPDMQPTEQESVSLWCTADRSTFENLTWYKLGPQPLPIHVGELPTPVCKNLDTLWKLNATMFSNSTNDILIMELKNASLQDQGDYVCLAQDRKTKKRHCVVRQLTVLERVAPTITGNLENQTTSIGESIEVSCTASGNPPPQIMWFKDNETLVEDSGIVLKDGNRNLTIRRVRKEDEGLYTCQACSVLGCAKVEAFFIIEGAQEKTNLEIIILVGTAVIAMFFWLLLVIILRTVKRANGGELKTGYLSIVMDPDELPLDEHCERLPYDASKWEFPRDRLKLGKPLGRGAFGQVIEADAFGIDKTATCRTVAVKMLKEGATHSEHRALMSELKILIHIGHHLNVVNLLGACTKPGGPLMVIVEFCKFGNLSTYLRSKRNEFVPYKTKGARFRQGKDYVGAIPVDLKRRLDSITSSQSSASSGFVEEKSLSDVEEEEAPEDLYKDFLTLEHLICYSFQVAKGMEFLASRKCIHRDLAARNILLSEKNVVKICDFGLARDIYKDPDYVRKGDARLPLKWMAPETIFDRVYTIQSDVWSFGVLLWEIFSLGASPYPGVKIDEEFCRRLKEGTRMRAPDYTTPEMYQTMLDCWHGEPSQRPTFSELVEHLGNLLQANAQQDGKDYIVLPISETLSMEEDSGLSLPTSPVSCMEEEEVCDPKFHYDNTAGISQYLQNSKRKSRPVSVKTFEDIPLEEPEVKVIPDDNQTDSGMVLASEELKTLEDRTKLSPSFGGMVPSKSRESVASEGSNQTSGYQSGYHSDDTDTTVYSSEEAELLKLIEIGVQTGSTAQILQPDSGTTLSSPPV

[4] = tested on: HEL 92.1.7 cells; assay: Cell proliferation assay (CellTiter-Glo), HEL 92.1.7; type: cell-based; details: Homo sapiens; for EC50: read-out: EC50 (μM) HEL 92.1.7
In short: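 CellTiter-Glo luminescence was read after 3-day compound exposure at 37 °C of cells plated at 1000/well in RPMI1640 with 10% FBS. Signal was normalised between DMSO-treated and control-compound-treated wells. EC50 is the concentration giving 50% of maximal effect.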

[5] = target: Pim1 kinase (Homo sapiens, UniProt P11309); assay: Pim1 ATP depletion assay; type: biochemical; details: for IC50: read-out: IC50 (μM) PIM1;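 on all read-outs here: Luciferase-luciferin luminescence readout of residual ATP after PIM1 transfers phosphate to a peptide substrate, 40 µM ATP added, reaction run to roughly half ATP consumption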
Chain of Pim1 kinase (P11309 whole entry): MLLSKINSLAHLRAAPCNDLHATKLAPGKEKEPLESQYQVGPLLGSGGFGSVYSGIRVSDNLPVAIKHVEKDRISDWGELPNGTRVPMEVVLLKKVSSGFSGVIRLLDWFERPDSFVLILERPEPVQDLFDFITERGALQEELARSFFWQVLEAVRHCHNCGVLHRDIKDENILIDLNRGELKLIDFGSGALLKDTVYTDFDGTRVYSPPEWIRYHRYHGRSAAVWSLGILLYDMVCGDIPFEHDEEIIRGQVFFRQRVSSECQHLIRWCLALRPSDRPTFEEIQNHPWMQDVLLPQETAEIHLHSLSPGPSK

[6] = target: Pim2 kinase (Homo sapiens, UniProt Q9P1W9); assay: Pim2 ATP depletion assay; type: biochemical; details: for IC50: read-out: IC50 (μM) PIM2;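 on all read-outs here: Luciferase-based luminescent readout of ATP remaining after PIM2 phosphorylates a BAD peptide, final 5 nM enzyme, 4 µM ATP, 10 µM peptide, 2.5% DMSO, run to roughly half ATP consumption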
Chain of Pim2 kinase (Q9P1W9 whole entry): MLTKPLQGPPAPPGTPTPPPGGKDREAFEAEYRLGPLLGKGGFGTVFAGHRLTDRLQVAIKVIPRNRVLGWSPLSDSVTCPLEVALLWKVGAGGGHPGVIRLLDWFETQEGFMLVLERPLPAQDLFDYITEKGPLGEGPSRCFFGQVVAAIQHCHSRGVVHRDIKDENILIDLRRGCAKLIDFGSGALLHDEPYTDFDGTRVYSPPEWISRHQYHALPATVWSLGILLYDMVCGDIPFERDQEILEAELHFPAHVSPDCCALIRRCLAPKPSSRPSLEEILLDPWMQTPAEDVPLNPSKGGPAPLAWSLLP

SMILES | IC50 [1] [µM] | pIC50 [2] | IC50 [3] [µM] | IC50 [6] [µM] | IC50 ([5]; Pim1 ATP depletion assay) [µM] | pIC50 ([1]; read-out: PIM3 IC50) | pIC50 ([5]; Pim1 ATP depletion assay, read-out: PIM1 IC50) | pIC50 ([6]; read-out: PIM2 IC50) | EC50 [4] [µM] | pIC50 [5] | pEC50 ([4]; read-out: HEL 92.1.7 EC50)
Nc1nc(N)c(C(=O)Nc2[nH]c(=O)ncc2N2CCCCC2)nc1Cl [Example 131, 3,5-diamino-6-chloro-N-(2-oxo-5-piperidin-1-yl-2,3-dihydro-pyrimidin-4-yl)pyrazine-2-carboxamide] | < 1 | < 4.60 | < 1 | < 1 | < 1 |  |  |  | < 1 |  | 
Nc1nc(N)c(C(=O)Nc2[nH]c(=O)ncc2N2CCC(C(F)(F)F)CC2)nc1Cl [Example 159, 3,5-diamino-6-chloro-N-{2-oxo-5-[4-(trifluoromethyl)piperidin-1-yl]-2,3-dihydropyrimidin-4-yl}pyrazine-2-carboxamide] | < 1 | < 4.60 | < 1 | < 1 | < 1 |  |  |  | 5 to 10 |  | 
Nc1nc(N)c(C(=O)Nc2[nH]c(=O)ncc2N2CCC(F)(F)CC2)nc1Cl [Example 161, 3,5-diamino-6-chloro-N-[5-(4,4-difluoropiperidin-1-yl)-2-oxo-2,3-dihydropyrimidin-4-yl]-pyrazine-2-carboxamide] | < 1 | < 4.60 | < 1 | < 1 | < 1 |  |  |  | > 10 |  | 
Nc1cccnc1C(=O)Nc1cnccc1N1CCC[C@H](N)C1 [Example 175, 3-amino-N-{4-[(3S)-3-amino-piperidin-1-yl]pyridin-3-yl}-pyridine-2-carboxamide] | < 1 | 5.00 to 6.00 | > 25 | < 1 |  |  |  |  | > 10 | > 6.00 | 
Nc1nc(N)c(C(=O)Nc2cnccc2N2CCCC(N)C2)nc1Cl (stereo not shown) [Example 183, 3,5-diamino-N-[4-(3-amino-piperidin-1-yl)pyridin-3-yl]-6-chloropyrazine-2-carboxamide] | < 1 | 4.60 to 5.00 | 1 to 10 | < 1 | < 1 |  |  |  | < 1 |  | 
NCC1CCCN(c2ccncc2NC(=O)c2nccnc2N)C1 (stereo not shown) [Example 184, 3-amino-N-{4-[3-(aminomethyl)-piperidin-1-yl]pyridin-3-yl}pyrazine-2-carboxamide] | < 1 | > 6.00 | 10 to 25 | 1 to 10 |  |  |  |  | < 1 | > 6.00 | 
CS(=O)(=O)c1cccc(-c2ccc(N)c(C(=O)Nc3cnccc3N3CCC[C@H](N)C3)n2)c1 [Example 320] | < 1 | 4.60 to 5.00 | > 25 | < 1 | < 1 |  |  |  | > 10 |  | 
Cc1ccc(F)c(-c2ccc(N)c(C(=O)Nc3cnccc3N3CCC[C@H](N)C3)n2)c1 [Example 333, 3-amino-6-(2-fluoro-5-methyl-phenyl)-pyridine-2-carboxylic acid ((S)-3-amino-3,4,5,6-tetrahydro-2H-[1,4′]bi-pyridinyl-3′-yl)-amide] | < 1 | 4.60 to 5.00 | > 25 | < 1 | < 1 |  |  |  | 1 to 5 |  | 
COc1ccc(F)cc1-c1ccc(N)c(C(=O)Nc2cnccc2N2CCC[C@H](N)C2)n1 [Example 427, 3-amino-6-(5-fluoro-2-methoxy-phenyl)-pyridine-2-carboxylic acid ((S)-3-amino-3,4,5,6-tetra-hydro-2H-[1,4′]bipyridinyl-3′-yl)-amide] | < 1 | 4.60 to 5.00 |  | < 1 | < 1 |  |  |  | 1 to 5 |  | 

Further lines, with some results ahead:

IC50 [1] [µM] | pIC50 [2] | IC50 [3] [µM] | IC50 [6] [µM] | IC50 ([5]; Pim1 ATP depletion assay) [µM] | pIC50 ([1]; read-out: PIM3 IC50) | pIC50 ([5]; Pim1 ATP depletion assay, read-out: PIM1 IC50) | pIC50 ([6]; read-out: PIM2 IC50) | SMILES | EC50 [4] [µM] | pIC50 [5] | pEC50 ([4]; read-out: HEL 92.1.7 EC50)
< 1 | > 6.00 | 1 to 10 | 1 to 10 |  |  |  |  | Nc1nccnc1C(=O)Nc1cnccc1N1CCCCC1 [Example 123, 3-amino-N-(4-piperidin-1-yl-pyridin-3-yl)pyrazine-2-carbox-amide] | < 1 | > 6.00 | 
< 1 | > 6.00 | 1 to 10 | < 1 | < 1 |  |  |  | Nc1nccnc1C(=O)Nc1[nH]c(=O)ncc1N1CCCCC1 [Example 130, 3-amino-N-(2-oxo-5-piperidin-1-yl-2,3-dihydropyrimidin-4-yl)-pyrazine-2-carboxamide] | 5 to 10 |  | 
< 1 | 5.00 to 6.00 | > 25 | < 1 | < 1 |  |  |  | Nc1cccnc1C(=O)Nc1ccncc1N1CCCC(N)C1 (stereo not shown) [Example 174, 3-amino-N-[3-(3-aminopiperidin-1-yl)pyridin-4-yl]pyridine-2-carboxamide] | > 10 |  | 
< 1 | 5.00 to 6.00 | 1 to 10 | < 1 | < 1 |  |  |  | NCC1CCCN(c2ccncc2NC(=O)c2nc(Cl)c(N)nc2N)C1 (stereo not shown) [Example 182, 3,5-diamino-N-{4-[3-(amino-methyl)piperidin-1-yl]pyridin-3-yl}-6-chloropyrazine-2-carboxamide] | < 1 |  | 
< 1 | 5.00 to 6.00 | 1 to 10 | < 1 | < 1 |  |  |  | NCCC(=O)N1CCN(c2ccncc2NC(=O)c2nc(Cl)c(N)nc2N)CC1 [Example 185, 3,5-Diamino-6-chloro-pyrazine-2-carboxylic acid {4-[4-(3-amino-propionyl)-piperazin-1-yl]-pyridin-3-yl}-amide] | < 1 |  | 
< 1 | > 6.00 | 10 to 25 | < 1 | < 1 |  |  |  | Nc1nccnc1C(=O)Nc1[nH]c(=O)ncc1N1CCCC(N)C1 (stereo not shown) [Example 235, 3-amino-N-[5-(3-aminopiperidin-1-yl)-2-oxo-2,3-dihydro-pyrimidin-4-yl]pyrazine-2-carboxamide] | > 10 |  | 
< 1 | 5.00 to 6.00 | > 25 | < 1 | < 1 |  |  |  | N#Cc1ccccc1-c1ccc(N)c(C(=O)Nc2cnccc2N2CCC[C@H](N)C2)n1 [Example 332, 3-amino-6-(2-cyano-phenyl)-pyridine-2-carboxylic acid ((S)-3-amino-3,4,5,6-tetra-hydro-2H-[1,4′]bipyridinyl-3′-yl)-amide] | 1 to 5 |  | 
< 1 | 5.00 to 6.00 | 10 to 25 | < 1 | < 1 |  |  |  | Cc1ccccc1-c1nc(C(=O)Nc2cnccc2N2CCCC(N)C2)c(N)nc1N (stereo not shown) [Example 340, 3,5-diamino-6-o-tolyl-pyrazine-2-carboxylic acid (3-amino-3,4,5,6-tetrahydro-2H-[1,4′]bipyridinyl-3′-yl)-amide] | 1 to 5 |  | 
< 1 | 5.00 to 6.00 |  | < 1 | < 1 |  |  |  | Nc1ncc(-c2cncnc2)nc1C(=O)Nc1cnccc1N1CCCC(N)C1 (stereo not shown) [Example 357, 3-amino-6-pyrimidin-5-yl-pyrazine-2-carboxylic acid (3-amino-3,4,5,6-tetrahydro-2H-[1,4′]bipyridinyl-3′-yl)-amide] | 1 to 5 |  | 
< 1 | > 6.00 |  | < 1 | < 1 |  |  |  | Nc1ncc(-c2ccccc2F)nc1C(=O)Nc1[nH]c(=O)ncc1N1CCCC(N)C1 (stereo not shown) [Example 401, 3-amino-6-(2-fluoro-phenyl)-pyrazine-2-carboxylic acid [5-(3-amino-piperidin-1-yl)-2-oxo-2,3-dihydro-pyrimidin-4-yl]-amide] | 5 to 10 |  | 
< 1 | 5.00 to 6.00 |  | < 1 | < 1 |  |  |  | Nc1ncc(-c2ccccc2Cl)nc1C(=O)Nc1[nH]c(=O)ncc1N1CCCC(N)C1 (stereo not shown) [Example 402, 3-amino-6-(2-chloro-phenyl)-pyrazine-2-carboxylic acid [5-(3-amino-piperidin-1-yl)-2-oxo-2,3-dihydro-pyrimidin-4-yl]-amide] | 5 to 10 |  | 
 | 5.00 to 6.00 |  |  |  | > 6.00 | > 6.00 | > 6.00 | Nc1ncc(-c2ccccc2F)nc1C(=O)Nc1[nH]c(=O)ncc1N1CCCCC1 [Example 592, 3-amino-6-(2-fluoro-phenyl)-pyrazine-2-carboxylic acid (2-oxo-5-piperidin-1-yl-2,3-dihydro-pyrimidin-4-yl)-amide] |  |  | > 6.00
